Test results: patent publication US8163737B2 (Vertex Pharmaceuticals Incorporated, priority 2006, dated 2012)

Assays:
endogenous CGRP receptor = endogenous CGRP receptor (Homo sapiens, UniProt O60894+Q16602); test: CGRP functional antagonism using SK-N-MC-BLA (4C10), β-lactamase transcriptional reporter assay; type: cell-based; details: SK-N-MC (4C10) cells, inhibition of β-lactamase expression in the presence of 200 pM CGRP
[1] = molecular target: T1, CGRP receptor (SK-N-MC membrane) (Homo sapiens, UniProt O60894+Q16602); test: I125-CGRP binding displacement assay on purified SK-N-MC membrane
T1 construct: Purified SK-N-MC membrane was purchased from Perkin Elmer; purchased Perkin Elmer; host or cells: SK-N-MC membrane
Summary of the method: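 Displacement of I125-CGRP binding was measured by filtration and scintillation counting after 2 h room-temperature incubation with compound and SK-N-MC membranes (buffer pH 7.4, MgCl2, BSA, Tween). Percent displacement calculated against total binding and 1 uM cold CGRP nonspecific controls, then curve-fitted.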

Sequence of endogenous CGRP receptor (Q16602 23-461): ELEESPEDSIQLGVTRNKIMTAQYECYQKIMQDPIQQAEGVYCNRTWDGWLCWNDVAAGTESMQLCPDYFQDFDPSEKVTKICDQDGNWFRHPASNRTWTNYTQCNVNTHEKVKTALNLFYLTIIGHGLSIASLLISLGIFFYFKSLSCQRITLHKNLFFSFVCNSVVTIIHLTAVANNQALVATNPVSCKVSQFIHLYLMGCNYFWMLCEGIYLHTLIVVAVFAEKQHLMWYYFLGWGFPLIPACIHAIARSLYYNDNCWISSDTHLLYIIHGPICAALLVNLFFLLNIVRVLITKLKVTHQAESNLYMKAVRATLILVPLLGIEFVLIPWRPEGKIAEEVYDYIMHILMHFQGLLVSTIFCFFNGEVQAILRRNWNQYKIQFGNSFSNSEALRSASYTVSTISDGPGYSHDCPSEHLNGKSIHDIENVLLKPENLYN
Sequence of endogenous CGRP receptor (O60894 27-148): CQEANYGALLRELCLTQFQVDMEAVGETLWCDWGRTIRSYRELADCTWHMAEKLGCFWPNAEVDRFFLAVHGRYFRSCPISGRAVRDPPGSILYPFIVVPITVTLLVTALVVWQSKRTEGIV
T1 sequence (Q16602 23-461): as the sequence (Q16602 23-461) above
T1 sequence (O60894 27-148): as the sequence (O60894 27-148) above

SMILES | IC50 (endogenous CGRP receptor) [nM] | Ki [1] [nM]
CC(C)(C)N1CCN(c2c(F)cccc2C2S[C@@H](CC(=O)N3CCC(N4CCc5ccccc5NC4=O)CC3)C(=O)N2CC2CCCCC2)CC1 (some centres unmarked) [Compound 515] | < 1000 | < 1000
CN1CCN(c2ccccc2[C@@H]2S[C@](C)(CC(=O)N3CCC(N4CCc5ccccc5NC4=O)CC3)C(=O)N2CCC(C)(C)C)CC1 [Compound 375] | < 1000 | < 1000
CN(C)CCNc1c(F)cccc1C1S[C@@H](CC(=O)N2CCC(n3c(=O)[nH]c4ncccc43)CC2)C(=O)N1CCC(C)(C)C (stereo partly drawn) [Compound 518, 1-(1-(2-((5S)-2-(2-(2-(Dimethylamino)ethylamino)-3-fluorophenyl)-3-(3,3-dimethylbutyl)-4-oxothiazolidin-5-yl)acetyl)piperidin-4-yl)-1H-imidazo[4,5-b]pyridin-2(3H)-one] | < 1000 | < 1000
CC(C)(C)CCN1C(=O)C(CC(=O)N2CCC(n3c(=O)[nH]c4ccccc43)CC2)SC1c1ccccc1-n1ccnc1 (centres unmarked) [Compound 295] | < 1000 | < 1000
CN1CCN(c2cccc(F)c2C2SC(CC(=O)N3CCC(n4c(=O)[nH]c5ncccc54)CC3)C(=O)N2CCC(C)(C)C)CC1 (centres unmarked) [Compound 350] | < 1000 | < 1000
CC(C)CN1C(=O)[C@H](CC(=O)N2CCC(n3c(=O)[nH]c4ncccc43)CC2)S[C@@H]1c1cccc(F)c1N1CCN(C(C)(C)C)CC1 [Compound 495] | < 1000 | < 1000
CN(c1ccccc1C1SC(CC(=O)N2CCC(N3CCc4ccccc4NC3=O)CC2)C(=O)N1CCC(C)(C)C)[C@H]1CCN(Cc2ccccc2)C1 (some centres unmarked) [Compound 409] | > 5000 | < 1000
CN1CCN(c2ccccc2C2SC(CC(=O)N3CCC4(CC3)CNC(=O)c3ccccc3O4)C(=O)N2CCC(C)(C)C)CC1 (centres unmarked) [Compound 330] | 1000 to 5000 | < 1000
CC(C)CCN1C(=O)C(CC(=O)N2CCC(n3cc(-c4ccccc4)[nH]c3=O)CC2)SC1C1CCCC1 (centres unmarked) [Compound 87] | 1000 to 5000 | 1000 to 5000

Continued, values first:

IC50 (endogenous CGRP receptor) [nM] | Ki [1] [nM] | SMILES
1000 to 5000 | < 1000 | CC(C)N1C(=O)C(CC(=O)N2CCC(N3Cc4ccccc4NC3=O)CC2)SC1c1ccccc1 (centres unmarked) [Compound 255, 3,4-Dihydro-3-(1-(2-(3-isopropyl-4-oxo-2-phenylthiazolidin-5-yl)acetyl)piperidin-4-yl)quinazolin-2(1H)-one]
< 1000 | < 1000 | CN1CCN(c2ccc(F)cc2C2SC(CC(=O)N3CCC(n4c(=O)[nH]c5ccccc54)CC3)C(=O)N2CCC(C)(C)C)CC1 (centres unmarked) [Compound 354]
< 1000 | < 1000 | CC(C)CCN1C(=O)C(CC(=O)N2CCC(n3c(=O)[nH]c4ccccc43)CC2)S[C@H]1c1ccccc1N1CCC(O)CC1 (some centres unmarked) [Compound 290]
< 1000 | < 1000 | CC(C)N1CCN(c2c(F)cccc2[C@@H]2S[C@@](C)(CC(=O)N3CCC(N4CCc5ccccc5NC4=O)CC3)C(=O)N2CCC(C)(C)C)CC1 [Compound 431]
1000 to 5000 | < 1000 | CN1CCN(c2ccc(F)cc2C2SC(CC(=O)N3CCC(N4Cc5ccccc5NC4=O)CC3)C(=O)N2CCC(C)(C)C)CC1 (centres unmarked) [Compound 351]
< 1000 | < 1000 | CC(C)(C)CCN1C(=O)C(CC(=O)N2CCC(N3Cc4ccccc4NC3=O)CC2)SC1c1ccccc1N1CCOCC1 (centres unmarked) [Compound 160]
1000 to 5000 | < 1000 | CC(C)CCN1C(=O)C(CC(=O)N2CCC(N3Cc4ccccc4NC3=O)CC2)S(=O)(=O)C1c1ccc(F)cc1F (centres unmarked) [Compound 203]
> 5000 | > 5000 | CC(C)(C)CCN1C(=O)C(CC(=O)N2CCC(N3Cc4ccccc4NC3=O)CC2)SC1c1ncc[nH]1 (centres unmarked) [Compound 306]
< 1000 | < 1000 | CC(C)(C)N1CCN(c2c(F)cccc2C2S[C@@H](CC(=O)N3CCC(N4CCc5ccccc5NC4=O)CC3)C(=O)N2Cc2ccccc2)CC1 (some centres unmarked) [Compound 539]
< 1000 | < 1000 | CC(C)(C)CCN1C(=O)C(CC(=O)N2CCC(N3CCc4ccccc4NC3=O)CC2)SC1c1ccccc1F (centres unmarked) [Compound 244]
